# Test results reported in US9453006B2, “Crystalline form having specific crystal habit and pharmaceutical composition containing this crystalline form as active ingredient” (POLA PHARMA INC., priority 2013, dated 2016).
# Experiments:
# Trichomonas = experiment: Anti-Trichomonas effect, number of survived protozoa after 72 hours culture at 37° C. (Example 4); assay type: cell-based; conditions: for Number of survived protozoa: cultured 72 hours at 37° C.
# Method: Each of Crystal 1 and Crystal 2 was correctly weighed in an amount of 3.45 mg, which was dissolved in 10 mL of ethanol, in the same manner as in Example 3. After confirming the absence of the crystal by visual observation, 100 μL of the solution was used as an aliquot, and 900 μL of physiological saline was added thereto. The resultant solution was subjected to the sterilizing filtration by using a filter having a pore size of […] a sample or specimen. 0.5 mL of each of the specimens was added to “Trichomonas medium F” (produced by Fuji Pharma Co., Ltd.). Further, 100 μL of Trichomonas culture, which had been precultured and prepared to give 2.7×10^5 individuals/mL by adding the medium, was added, followed by being cultured for 72 hours at 37° C. (final concentration: 2.4 μg/mL). After completing the cultivation, the number of survived individuals of Trichomonas was counted by using a hemocytometer.
# [1] = test system: Trichomonas vaginalis (clinically isolated strain); experiment: Effect on Trichomonas vaginalis, number of survived individuals after 96 hours culture (Example 3); assay type: cell-based; conditions: for Number of survived individuals of Trichomonas: after 0.22 μm sterilizing filtration, cultured 96 hours
# Source text: The effect on Trichomonas vaginalis (clinically isolated strain) of the crystal was investigated while being compared with a crystal having such a crystal habit that the (11-1) plane was the specific crystal growth plane. A solution of 10% ethanol/physiological saline was used as a control.
# Crystal of Comparative Example described above was used as the crystal which had such a crystal habit that the (11-1) plane was the specific crystal growth plane. Crystal 2 was used as the crystal which had such a crystal habit that the (011) plane was the specific crystal growth plane.
# Each of the crystals of luliconazole was weighed in an amount of 7.02 mg to which 10 mL of ethanol was added to dissolve the crystal. After confirming the absence of the crystal by visual observation, 100 μL of the solution was used as an aliquot, and 900 μL of physiological saline was added thereto. The resultant solution was subjected to the sterilizing filtration by using a filter having a pore size of 0.22 μm to provide a sample of 5.02 μg/mL (final concentration). 250 μL of an aliquot was taken therefrom, to which 250 μL of 10% ethanol/physiological saline was added to provide a sample of 2.51 μg/mL (final concentration).
# 0.5 mL of each of the samples was added to “Trichomonas medium F” (produced by Fuji Pharma Co., Ltd.), and 100 μL of Trichomonas culture (5×10^3 individuals of Trichomonas) was added thereto, followed by being cultured for 96 hours. After performing cooling for 10 minutes in ice water, the medium was stirred, which was spread on a hemocytometer to count a number of survived individuals of Trichomonas. As for a control, 0.5 mL of 10% ethanol/physiological saline was added in place of the sample. […] Further, according to the fact that the peak area ratio of the (011) plane was 26%, it is possible to estimate and acknowledge that the effect as described above is provided if I(011) with respect to the sum total of I(001), I(100), I(10-1), I(011), I(110), I(11-1), I(10-2), I(11-2), I(020), I(021), I(20-2), I(121), I(013), I(11-3), and I(221) is not less than 25%, provided that integrated intensities of diffraction peaks, which correspond to the (001), (100), (10-1), (011), (110), (11-1), (10-2), (11-2), (020), (021), (20-2), (121), (013), (11-3), and (221) planes, are designated as I(001), I(100), I(10-1), I(011), I(110), I(11-1), I(10-2), I(11-2), I(020), I(021), I(20-2), I(121), I(013), I(11-3), and I(221) respectively in relation to the diffraction peaks detected in a range of 2θ=5 to 35° in a powder X-ray diffraction pattern in which CuKα is used as an X-ray source.
# [2] = sample 2.51 μg/mL (final concentration)
# [3] = sample 5.02 μg/mL (final concentration)
SMILES,anti-Trichomonas effect (Trichomonas; Crystal 1 compared with Crystal 2),Number of survived protozoa (Trichomonas; final concentration 2.4 μg/mL),Number of survived protozoa (Trichomonas; final concentration 4.8 μg/mL),Number of survived protozoa (Trichomonas; final concentration 9.6 μg/mL),suppression of the growth of Trichomonas in the vicinity of MIC ([1]; compared with the crystal having the (11-1) plane as specific crystal growth plane),"Number of survived individuals of Trichomonas [1, 2]","Number of survived individuals of Trichomonas [1, 3]"
"N#C/C(=C1/SC[C@@H](c2ccc(Cl)cc2Cl)S1)n1ccnc1 [Crystal 1, luliconazole]",more excellent than that of Crystal 2,5.57 ± 0.42 100000 individuals/mL,0 100000 individuals/mL,0 100000 individuals/mL,–,–,–
"N#C/C(=C1/SC[C@@H](c2ccc(Cl)cc2Cl)S1)n1ccnc1 [Crystal 2, luliconazole]",–,6.57 ± 0.60 100000 individuals/mL,0 100000 individuals/mL,0 100000 individuals/mL,significantly excellent,23333 ± 5773 individuals/mL,23333 ± 5773 individuals/mL
"N#C/C(=C1/SC[C@@H](c2ccc(Cl)cc2Cl)S1)n1ccnc1 [Crystal of Comp. Ex., luliconazole, reference compound]",–,–,–,–,–,116667 ± 15275 individuals/mL,23333 ± 5773 individuals/mL
